What was measured:
barnyardgrass = assay: Test E pre-/postemergence herbicide test; format: in vivo, Echinochloa crus-galli
Procedure, shortened: (§1)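 Postemergence treatment targeted plants at the 1- to 4-leaf stage (2–18 cm), alongside preemergence treatment of planted seed; both used a non-phytotoxic solvent mixture with surfactant. Visual ratings, 0 = no effect to 100 = complete control, were taken 12 to 14 days later.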

large crabgrass = assay: Test E pre-/postemergence herbicide test; format: in vivo, Digitaria sanguinalis
Procedure, shortened: as §1

common ragweed = assay: Test E pre-/postemergence herbicide test; format: in vivo, Ambrosia elatior
Procedure, shortened: as §1

common purslane = assay: Test E pre-/postemergence herbicide test; format: in vivo, Portulaca oleracea; conditions: Preemergence
Description: (§2) Seeds of plant species selected from bipinnate beggarticks (Bidens bipinnata L.), hairy beggarticks (Bidens radiata Thuill.), bermudagrass (Cynodon dactylon (L.) Pers.), Surinam grass (Urochloa decumbens (Staph) R. D. Webster, previously named Brachiaria decumbens Stapf), large crabgrass (Digitaria sanguinalis (L.) Scop.), green foxtail (Setaria viridis (L.) P. Beauv.), goosegrass (Eleusine indica (L.) Gaertn.), johnsongrass (Sorghum halepense (L.) Pers.), kochia (Kochia scoparia (L.) Schrad.), pitted morningglory (Ipomoea lacunosa L.), purple nutsedge (Cyperus rotundus L.), common ragweed (Ambrosia elatior L.), mustard (Brassica nigra (L.) W. D. J. Koch), guineagrass (Panicum maximum Jacq.), dallisgrass (Paspalum dilatatum Poir.), barnyardgrass (Echinochloa crus-galli (L). P. Beauv.), southern sandbur (Cenchrus echinatus L.), common sowthistle (Sonchus oleraceous L.), prickly sida (Sida spinosa L.), Italian ryegrass (Lolium multiflorum Lam.), common purslane (Portulaca oleracea L.), broadleaf signalgrass (Brachiaria platyphylla (Griseb.) Nash), common groundsel (Senecio vulgaris L.), common chickweed (Stellaria media (L.) Vill/Cyr.), tropical spiderwort (Commelina benghalensis L.), annual bluegrass (Poa annua L.), downy bromegrass (Bromus tectorum L.), itchgrass (Rottboellia cochinchinensis (L.) L.f.), quackgrass (Elytrigia repens (L.) Nevski), Canada horseweed (Erigeron Canadensis L.), field bindweed (Convolvulus arvensis L.), spotted spurge (Euphorbia maculata L.), common mallow (Malva sylvestris (=s silvestris) L.), and Russian thistle (Salsola kali L. ssp. Ruthenica (Iljin) Soo) were planted and treated preemergence with test chemicals formulated in a non-phytotoxic solvent mixture which included a surfactant.
(§3) At the same time, plants selected from these weed species were treated with postemergence applications of some of the test chemicals formulated in the same manner. Plants ranged in height from 2 to 18 cm (1- to 4-leaf stage) for postemergence treatments. Treated plants and controls were maintained in a greenhouse for 12 to 14 days, after which time all species were compared to controls and visually evaluated. Plant response ratings, summarized in Table E, are based on a scale of 0 to 100 where 0 is no effect and 100 is complete control. A dash (-) response means no test result.

itchgrass = assay: Test E pre-/postemergence herbicide test; format: in vivo, Rottboellia cochinchinensis
Procedure, shortened: as §1

quackgrass = assay: Test E pre-/postemergence herbicide test; format: in vivo, Elytrigia repens
Procedure, shortened: as §1

common chickweed = assay: Test E pre-/postemergence herbicide test; format: in vivo, Stellaria media
Procedure, shortened: as §1

common sowthistle = assay: Test E pre-/postemergence herbicide test; format: in vivo, Sonchus oleraceous
Description: as §2, §3

common groundsel = assay: Test E pre-/postemergence herbicide test; format: in vivo, Senecio vulgaris
Description: as §2, §3

prickly sida = assay: Test E pre-/postemergence herbicide test; format: in vivo, Sida spinosa; conditions: Preemergence, scale 0 (no effect) to 100 (complete control)
Procedure, shortened: as §1

bipinnate beggarticks = assay: Test E pre-/postemergence herbicide test; format: in vivo, Bidens bipinnata; conditions: Preemergence
Procedure, shortened: as §1

blackgrass = assay: Test C postemergence herbicide test; format: in vivo, Alopecurus myosuroides
Procedure, shortened: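 Postemergence sprays applied to plants 2 to 18 cm tall (1- to 4-leaf stage); paddy species grown to 2-leaf stage under flooding. After 12 to 14 days in greenhouse, visual rating versus untreated controls on 0–100 scale (0 no effect, 100 complete control).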

[1] = Postemergence, 500 g ai/ha, scale 0 to 100
[2] = Postemergence, 250 g ai/ha, scale 0 to 100
[3] = Preemergence, 62 g ai/ha, scale 0 to 100
[4] = Preemergence, 125 g ai/ha, scale 0 to 100
[5] = Preemergence, 250 g ai/ha, scale 0 (no effect) to 100 (complete control)
[6] = Preemergence, 500 g ai/ha, scale 0 (no effect) to 100 (complete control)
[7] = postemergence, 125 g ai/ha, scale 0 to 100
[8] = postemergence, 62 g ai/ha, scale 0 to 100
[9] = 250 g ai/ha, scale 0 (no effect) to 100 (complete control)
[10] = 500 g ai/ha, scale 0 (no effect) to 100 (complete control)

CCn1nc(C(C)(C)C)cc1C(=O)Nc1cccc(C(N)=O)n1 [Compound 162, 6-[[[3-(1,1-dimethylethyl)-1-ethyl-1H-pyrazol-5-yl]carbonyl]amino]-2-pyridinecarboxamide]
80: Plant response rating, Barnyardgrass (barnyardgrass; [7]) | Plant response rating, Ragweed (common ragweed; [2]) | Plant response rating, Chickweed (common chickweed; [8]) | Plant response rating, Sowthistle (common sowthistle; [5]) | Plant response rating, Groundsel (common groundsel; [2]) | Plant response rating, Groundsel (common groundsel; [5])
90: Plant response rating, Barnyardgrass (barnyardgrass; [2]) | Plant response rating, Crabgrass, Large (large crabgrass; [2]) | Plant response rating, Crabgrass, Large (large crabgrass; [4]) | Plant response rating, Ragweed (common ragweed; [1]) | Plant response rating, Quackgrass (quackgrass; [2]) | Plant response rating, Quackgrass (quackgrass; [6])
10: Plant response rating, Groundsel (common groundsel; [3])
50: Plant response rating, Crabgrass, Large (large crabgrass; [3]) | Plant response rating, Crabgrass, Large (large crabgrass; [7]) | Plant response rating, Ragweed (common ragweed; [8]) | Plant response rating, Quackgrass (quackgrass; [8])
20: Plant response rating, Ragweed (common ragweed; [3]) | Plant response rating, Quackgrass (quackgrass; [3]) | Plant response rating, Groundsel (common groundsel; [8])
95: Plant response rating, Barnyardgrass (barnyardgrass; [1]) | Plant response rating, Crabgrass, Large (large crabgrass; [1]) | Plant response rating, Crabgrass, Large (large crabgrass; [5]) | Plant response rating, Ragweed (common ragweed; [6]) | Plant response rating, Itchgrass (itchgrass; [1]) | Plant response rating, Itchgrass (itchgrass; [2]) | Plant response rating, Itchgrass (itchgrass; [4]) | Plant response rating, Itchgrass (itchgrass; [5]) | Plant response rating, Quackgrass (quackgrass; [1]) | Plant response rating, Chickweed (common chickweed; [4]) | Plant response rating, Chickweed (common chickweed; [5]) | Plant response rating, Chickweed (common chickweed; [6]) | Plant response rating, Sowthistle (common sowthistle; [6])
75: Plant response rating, Ragweed (common ragweed; [5]) | Plant response rating, Ragweed (common ragweed; [7]) | Plant response rating, Itchgrass (itchgrass; [8]) | Plant response rating, Quackgrass (quackgrass; [5]) | Plant response rating, Sowthistle (common sowthistle; [2]) | Plant response rating, Sowthistle (common sowthistle; [7]) | Plant response rating, Sowthistle (common sowthistle; [8])
60: Plant response rating, Barnyardgrass (barnyardgrass; [3]) | Plant response rating, Barnyardgrass (barnyardgrass; [8]) | Plant response rating, Ragweed (common ragweed; [4]) | Plant response rating, Quackgrass (quackgrass; [4]) | Plant response rating, Sowthistle (common sowthistle; [4])
30: Plant response rating, Crabgrass, Large (large crabgrass; [8]) | Plant response rating, Groundsel (common groundsel; [7])
85: Plant response rating, Itchgrass (itchgrass; [7])
100: Plant response rating, Barnyardgrass (barnyardgrass; [4]) | Plant response rating, Barnyardgrass (barnyardgrass; [5]) | Plant response rating, Barnyardgrass (barnyardgrass; [6]) | Plant response rating, Crabgrass, Large (large crabgrass; [6]) | Plant response rating, Purslane (common purslane; 62 g ai/ha, scale 0 to 100) | Plant response rating, Purslane (common purslane; 125 g ai/ha, scale 0 to 100) | Plant response rating, Purslane (common purslane; [9]) | Plant response rating, Purslane (common purslane; [10]) | Plant response rating, Itchgrass (itchgrass; [6]) | Plant response rating, Chickweed (common chickweed; [2]) | Plant response rating, Chickweed (common chickweed; [7]) | Plant response rating, Sowthistle (common sowthistle; [1]) | Plant response rating, Groundsel (common groundsel; [1]) | Plant response rating, Groundsel (common groundsel; [6])
70: Plant response rating, Quackgrass (quackgrass; [7])
40: Plant response rating, Itchgrass (itchgrass; [3]) | Plant response rating, Sowthistle (common sowthistle; [3]) | Plant response rating, Groundsel (common groundsel; [4])

CCNC(=O)c1cccc(NC(=O)c2nn(C(C)(C)C)nc2C)c1 [Compound 392]
35: Plant response rating, Blackgrass (blackgrass; [8])
90: Plant response rating, Barnyardgrass (barnyardgrass; [5]) | Plant response rating, Purslane (common purslane; 125 g ai/ha, scale 0 to 100) | Plant response rating, Itchgrass (itchgrass; [6])
60: Plant response rating, Quackgrass (quackgrass; [4]) | Plant response rating, Chickweed (common chickweed; [3]) | Plant response rating, Groundsel (common groundsel; [4]) | Plant response rating, Groundsel (common groundsel; [5])
45: Plant response rating, Blackgrass (blackgrass; Postemergence, 250 g ai/ha, scale 0 to 100, 0 no effect, 100 complete control) | Plant response rating, Blackgrass (blackgrass; [7])
65: Blackgrass plant response rating (blackgrass; [1])
75: Plant response rating, Prickly Sida (prickly sida; 250 g ai/ha) | Plant response rating, Barnyardgrass (barnyardgrass; [3]) | Plant response rating, Barnyardgrass (barnyardgrass; [4]) | Plant response rating, Crabgrass, Large (large crabgrass; [3])
85: Plant response rating, Itchgrass (itchgrass; [4]) | Plant response rating, Itchgrass (itchgrass; [5])
100: Plant response rating, Prickly Sida (prickly sida; 500 g ai/ha) | Plant response rating, Barnyardgrass (barnyardgrass; [6]) | Plant response rating, Ragweed (common ragweed; [6]) | Plant response rating, Beggarticks, Bip. (bipinnate beggarticks; [10]) | Plant response rating, Purslane (common purslane; [9]) | Plant response rating, Purslane (common purslane; [10])
70: Plant response rating, Ragweed (common ragweed; [5]) | Plant response rating, Quackgrass (quackgrass; [5])
30: Plant response rating, Ragweed (common ragweed; [3]) | Plant response rating, Ragweed (common ragweed; [4])
50: Plant response rating, Itchgrass (itchgrass; [3])
10: Plant response rating, Beggarticks, Bip. (bipinnate beggarticks; 125 g ai/ha, scale 0 to 100) | Plant response rating, Quackgrass (quackgrass; [3]) | Plant response rating, Groundsel (common groundsel; [3])
20: Plant response rating, Sowthistle (common sowthistle; [3])
80: Plant response rating, Beggarticks, Bip. (bipinnate beggarticks; [9])
95: Plant response rating, Crabgrass, Large (large crabgrass; [4]) | Plant response rating, Crabgrass, Large (large crabgrass; [5]) | Plant response rating, Crabgrass, Large (large crabgrass; [6]) | Plant response rating, Quackgrass (quackgrass; [6]) | Plant response rating, Chickweed (common chickweed; [4]) | Plant response rating, Chickweed (common chickweed; [5]) | Plant response rating, Chickweed (common chickweed; [6]) | Plant response rating, Sowthistle (common sowthistle; [4]) | Plant response rating, Sowthistle (common sowthistle; [5]) | Plant response rating, Sowthistle (common sowthistle; [6]) | Plant response rating, Groundsel (common groundsel; [6])
